{"source": "the supplement of paper PMC4862054", "conditions_in_all_cases": "incubation time: 72 h", "key": {"CAL-148 [1]": {"test_system": "CAL-148", "assay": "normalised viability (% of control), CellTiter-Blue; higher = more viable cells (100 = DMSO, 0 = benzethonium chloride kill control)", "experimental": "(§1)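 DSRT, CellTiter-Blue viability, 72 h incubation. Signal is normalised to DMSO and benzethonium chloride controls. Value is the normalised response at dose 1.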"}, "HCC1599 [2]": {"test_system": "HCC1599", "assay": "normalised viability (% of control), CellTiter-Blue; higher = more viable cells (100 = DMSO, 0 = benzethonium chloride kill control)", "experimental": "as §1"}, "DU-4475 [3]": {"test_system": "DU-4475", "assay": "normalised viability (% of control), CellTiter-Blue; higher = more viable cells (100 = DMSO, 0 = benzethonium chloride kill control)", "experimental": "as §1"}, "CAL-120 [4]": {"test_system": "CAL-120", "assay": "normalised viability (% of control), CellTiter-Blue; higher = more viable cells (100 = DMSO, 0 = benzethonium chloride kill control)", "experimental": "as §1"}, "CAL-51 [5]": {"test_system": "CAL-51", "assay": "normalised viability (% of control), CellTiter-Blue; higher = more viable cells (100 = DMSO, 0 = benzethonium chloride kill control)", "experimental": "as §1"}, "SK-BR-3 [6]": {"test_system": "SK-BR-3", "assay": "normalised viability (% of control), CellTiter-Blue; higher = more viable cells (100 = DMSO, 0 = benzethonium chloride kill control)", "experimental": "as §1"}, "MDA-MB-468 [7]": {"test_system": "MDA-MB-468", "assay": "normalised viability (% of control), CellTiter-Blue; higher = more viable cells (100 = DMSO, 0 = benzethonium chloride kill control)", "experimental": "as §1"}, "MFM-223 [8]": {"test_system": "MFM-223", "assay": "normalised viability (% of control), CellTiter-Blue; higher = more viable cells (100 = DMSO, 0 = benzethonium chloride kill control)", "experimental": "as §1"}, "MDA-MB-231 [9]": {"test_system": "MDA-MB-231", "assay": "normalised viability (% of control), CellTiter-Blue; higher = more viable cells (100 = DMSO, 0 = benzethonium chloride kill control)", "experimental": "as §1"}, "CAL-85-1 [10]": {"test_system": "CAL-85-1", "assay": "normalised viability (% of control), CellTiter-Blue; higher = more viable cells (100 = DMSO, 0 = benzethonium chloride kill control)", "experimental": "as §1"}, "MDA-MB-453 [11]": {"test_system": "MDA-MB-453", "assay": "normalised viability (% of control), CellTiter-Blue; higher = more viable cells (100 = DMSO, 0 = benzethonium chloride kill control)", "experimental": "as §1"}, "HDQ-P1 [12]": {"test_system": "HDQ-P1", "assay": "normalised viability (% of control), CellTiter-Blue; higher = more viable cells (100 = DMSO, 0 = benzethonium chloride kill control)", "experimental": "as §1"}, "Hs578T [13]": {"test_system": "Hs578T", "assay": "normalised viability (% of control), CellTiter-Blue; higher = more viable cells (100 = DMSO, 0 = benzethonium chloride kill control)", "experimental": "as §1"}, "HCC1143 [14]": {"test_system": "HCC1143", "assay": "normalised viability (% of control), CellTiter-Blue; higher = more viable cells (100 = DMSO, 0 = benzethonium chloride kill control)", "experimental": "as §1"}, "HCC1937 [15]": {"test_system": "HCC1937", "assay": "normalised viability (% of control), CellTiter-Blue; higher = more viable cells (100 = DMSO, 0 = benzethonium chloride kill control)", "experimental": "as §1"}, "CAL-148 [16]": {"test_system": "CAL-148", "assay": "normalised response (% of control), CellTiter-Glo; higher = more viable cells (100 = DMSO, 0 = benzethonium chloride kill control)", "outline": "(§2)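 For each plate, 0.1 % DMSO was set to 100 and a positive kill control to 0. Breast cancer cell lines (20 µl suspension) were seeded into 384-well plates already holding compound at 5 concentrations in 10-fold steps over a 10,000-fold range chosen per compound, and incubated for 72 h. CellTox Green fluorescence at 485/520 nm was read before CellTiter-Glo luminescence, which followed 10 min at room temperature. Each value is the normalised signal at one concentration.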"}, "HCC1599 [17]": {"test_system": "HCC1599", "assay": "normalised response (% of control), CellTiter-Glo; higher = more viable cells (100 = DMSO, 0 = benzethonium chloride kill control)", "outline": "as §2"}, "DU-4475 [18]": {"test_system": "DU-4475", "assay": "normalised response (% of control), CellTiter-Glo; higher = more viable cells (100 = DMSO, 0 = benzethonium chloride kill control)", "outline": "as §2"}, "CAL-120 [19]": {"test_system": "CAL-120", "assay": "normalised response (% of control), CellTiter-Glo; higher = more viable cells (100 = DMSO, 0 = benzethonium chloride kill control)", "outline": "as §2"}, "BT-474": {"test_system": "BT-474", "assay": "normalised response (% of control), CellTiter-Glo; higher = more viable cells (100 = DMSO, 0 = benzethonium chloride kill control)", "outline": "as §2"}, "CAL-51 [20]": {"test_system": "CAL-51", "assay": "normalised response (% of control), CellTiter-Glo; higher = more viable cells (100 = DMSO, 0 = benzethonium chloride kill control)", "outline": "as §2"}, "SK-BR-3 [21]": {"test_system": "SK-BR-3", "assay": "normalised response (% of control), CellTiter-Glo; higher = more viable cells (100 = DMSO, 0 = benzethonium chloride kill control)", "outline": "as §2"}, "MDA-MB-468 [22]": {"test_system": "MDA-MB-468", "assay": "normalised response (% of control), CellTiter-Glo; higher = more viable cells (100 = DMSO, 0 = benzethonium chloride kill control)", "outline": "as §2"}, "MFM-223 [23]": {"test_system": "MFM-223", "assay": "normalised response (% of control), CellTiter-Glo; higher = more viable cells (100 = DMSO, 0 = benzethonium chloride kill control)", "outline": "as §2"}, "BT-549": {"test_system": "BT-549", "assay": "normalised response (% of control), CellTiter-Glo; higher = more viable cells (100 = DMSO, 0 = benzethonium chloride kill control)", "outline": "as §2"}, "MDA-MB-436": {"test_system": "MDA-MB-436", "assay": "normalised response (% of control), CellTiter-Glo; higher = more viable cells (100 = DMSO, 0 = benzethonium chloride kill control)", "outline": "as §2"}, "MDA-MB-231 [24]": {"test_system": "MDA-MB-231", "assay": "normalised response (% of control), CellTiter-Glo; higher = more viable cells (100 = DMSO, 0 = benzethonium chloride kill control)", "outline": "as §2"}, "CAL-85-1 [25]": {"test_system": "CAL-85-1", "assay": "normalised response (% of control), CellTiter-Glo; higher = more viable cells (100 = DMSO, 0 = benzethonium chloride kill control)", "outline": "as §2"}, "MCF-10A": {"test_system": "MCF-10A", "assay": "normalised response (% of control), CellTiter-Glo; higher = more viable cells (100 = DMSO, 0 = benzethonium chloride kill control)", "outline": "as §2"}, "MDA-MB-453 [26]": {"test_system": "MDA-MB-453", "assay": "normalised response (% of control), CellTiter-Glo; higher = more viable cells (100 = DMSO, 0 = benzethonium chloride kill control)", "outline": "as §2"}, "HDQ-P1 [27]": {"test_system": "HDQ-P1", "assay": "normalised response (% of control), CellTiter-Glo; higher = more viable cells (100 = DMSO, 0 = benzethonium chloride kill control)", "outline": "as §2"}, "Hs578T [28]": {"test_system": "Hs578T", "assay": "normalised response (% of control), CellTiter-Glo; higher = more viable cells (100 = DMSO, 0 = benzethonium chloride kill control)", "outline": "as §2"}, "HCC1143 [29]": {"test_system": "HCC1143", "assay": "normalised response (% of control), CellTiter-Glo; higher = more viable cells (100 = DMSO, 0 = benzethonium chloride kill control)", "outline": "as §2"}, "HCC1937 [30]": {"test_system": "HCC1937", "assay": "normalised response (% of control), CellTiter-Glo; higher = more viable cells (100 = DMSO, 0 = benzethonium chloride kill control)", "outline": "as §2"}}, "note": "“And” between values parts separate entries of the source, which are not always exact repeats. Equal values may be shown once.", "data": [{"smiles": "CCCCCOC(=O)Nc1nc(=O)n([C@@H]2O[C@H](C)[C@@H](O)[C@H]2O)cc1F", "note": "[Capecitabine] (1 nM)", "values": [{"measurement": "normalised viability", "setting": "CAL-148 [1]", "value": "106% and 102%"}, {"measurement": "normalised viability", "setting": "HCC1599 [2]", "value": "88.8% and 111%"}, {"measurement": "normalised viability", "setting": "DU-4475 [3]", "value": "108% and 102%"}, {"measurement": "normalised viability", "setting": "CAL-120 [4]", "value": "85.3% and 96.5%"}, {"measurement": "normalised viability", "setting": "CAL-51 [5]", "value": "106% and 99.2%"}, {"measurement": "normalised viability", "setting": "SK-BR-3 [6]", "value": "117% and 92.1%"}, {"measurement": "normalised viability", "setting": "MDA-MB-468 [7]", "value": "106% and 115%"}, {"measurement": "normalised viability", "setting": "MFM-223 [8]", "value": "88.8% and 95.7%"}, {"measurement": "normalised viability", "setting": "MDA-MB-231 [9]", "value": "94.7% and 83.7%"}, {"measurement": "normalised viability", "setting": "CAL-85-1 [10]", "value": "86.7% and 109%"}, {"measurement": "normalised viability", "setting": "MDA-MB-453 [11]", "value": "102% and 97.9%"}, {"measurement": "normalised viability", "setting": "HDQ-P1 [12]", "value": "85.1% and 91.7%"}, {"measurement": "normalised viability", "setting": "Hs578T [13]", "value": "105% and 96.7%"}, {"measurement": "normalised viability", "setting": "HCC1143 [14]", "value": "93.5% and 107%"}, {"measurement": "normalised viability", "setting": "HCC1937 [15]", "value": "84.3% and 85%"}, {"measurement": "normalised response", "setting": "CAL-148 [16]", "value": 106, "unit": "%"}, {"measurement": "normalised response", "setting": "HCC1599 [17]", "value": 95.5, "unit": "%"}, {"measurement": "normalised response", "setting": "DU-4475 [18]", "value": 99.7, "unit": "%"}, {"measurement": "normalised response", "setting": "CAL-120 [19]", "value": 94.6, "unit": "%"}, {"measurement": "normalised response", "setting": "BT-474", "value": 95.2, "unit": "%"}, {"measurement": "normalised response", "setting": "CAL-51 [20]", "value": 67.8, "unit": "%"}, {"measurement": "normalised response", "setting": "SK-BR-3 [21]", "value": 110, "unit": "%"}, {"measurement": "normalised response", "setting": "MDA-MB-468 [22]", "value": 103, "unit": "%"}, {"measurement": "normalised response", "setting": "MFM-223 [23]", "value": 98.2, "unit": "%"}, {"measurement": "normalised response", "setting": "BT-549", "value": 107, "unit": "%"}, {"measurement": "normalised response", "setting": "MDA-MB-436", "value": 88.7, "unit": "%"}, {"measurement": "normalised response", "setting": "MDA-MB-231 [24]", "value": 102, "unit": "%"}, {"measurement": "normalised response", "setting": "CAL-85-1 [25]", "value": 96.8, "unit": "%"}, {"measurement": "normalised response", "setting": "MCF-10A", "value": 94.5, "unit": "%"}, {"measurement": "normalised response", "setting": "MDA-MB-453 [26]", "value": 113, "unit": "%"}, {"measurement": "normalised response", "setting": "HDQ-P1 [27]", "value": 102, "unit": "%"}, {"measurement": "normalised response", "setting": "Hs578T [28]", "value": 102, "unit": "%"}, {"measurement": "normalised response", "setting": "HCC1143 [29]", "value": 96.8, "unit": "%"}, {"measurement": "normalised response", "setting": "HCC1937 [30]", "value": 98.2, "unit": "%"}]}]}
